Assay results from patent US20100160402A1, “Bisbenzimidazoles as antimalarial agents” (priority 2007, published 2010).
Where “and” joins values, the source holds several entries; their conditions need not be identical. Equal values may be shown once. Read-outs that look alike come from different tables or passages of the source.

Tests used:
[1] = system: other strains of parasites; assay: Activity against other strains of parasites (selectivity); type: cell-based
Plasmodium falciparum = assay: In vitro drug screening model against Plasmodium falciparum (drug sensitivity assay, Malstat LDH read-out); type: cell-based; settings: for IC50: Plasmodium falciparum; for score: score in brackets after the IC50, scale not defined
Method: Malaria: In Vitro Drug Screening Model Against Plasmodium falciparum
Two strains of P. falciparum were used: 1/GHA strain (P. falGHA), derived from a Ghanese patient and chloroquine sensitive and 2/W-2 strain (P.falW2) from CDC/Indochina III and resistant to chloroquine, quinine, pyrimethamine, but susceptible to mefloquine. The strains were maintained in RPMI-1640 medium supplemented with 0.37 mM hypoxanthine, 25 mM Hepes, 25 mM NaHCO3, and 10% O+ human serum together with 2-4% washed human O+ erythrocytes (Adaptation of the procedures described by Trager, W.; Jensen J. B. Science 1976, 193, 673-677). All cultures and assays were conducted at 37° C. under an atmosphere of 4% CO2, 3% O2 and 93% N2.
Compound stock solutions were prepared in 100% DMSO at 20 mM or mg/ml (Concentrations are standard expressed in molar concentrations). The compounds were serially pre-diluted (2-fold or 4-fold) in DMSO followed by a further (intermediate) dilution in demineralized water to assure a final in-test DMSO concentration of <1%.
Assays were performed in sterile 96-well microtiter plates, each well containing 10 μl of the watery compound dilutions together with 190 μl of the malaria parasite inoculum (1% parasitaemia, 2% HCT). Parasite growth was compared to untreated-infected (100% growth) and uninfected-controls (0% growth). After 72 h incubation at 37° C., plates were frozen at −20° C. After thawing, 20 μl of each well was transferred into another plate together with 100 μl Malstat reagent (Lactate dehydrogenase (LDH)-test, according to Makler et al.: Am. J. Trop Med. Hyg, 48, 7339-741, 1993) and 20 μl of a 1/1 mixture of PES (phenazine ethosulfat, 0.1 mg/ml) and NBT (NitroBlue Tetrazolium Grade III, 2 mg/ml). The plates were kept out of light for 2 hours and change in color was measured spectrophotometrically at 655 nm. The results were expressed as % reduction in parasitaemia compared to control wells. For each compound, an IC50 was calculated.
The GHA strain was used. Compounds were tested at 5 concentrations (64-16-4-1 and 0.25 μM or μg/ml). […] Some of the compounds were evaluated in a secondary screening.
Additional strains (GHA, W2, D6, NF54) were included and the IC50-values were determined using an extended dose range (2-fold compound dilutions). Artesunate and chloroquine were included as reference drugs.

[2] = Table 2, P. falciparum, strain not given, 72 h incubation, read-out: IC50

SMILES | melting point | IC50 (Plasmodium falciparum; [2]) | activity against some other strains of parasites (selectivity compared to chloroquine) [1] | score (Plasmodium falciparum; Table 2) | IC50 (Plasmodium falciparum; 72 h)
CCN(CC)CCCC(C)Nc1ccnc2cc(Cl)ccc12 (stereo not drawn) [Chloroquine, chloroquine, reference compound] | – | – | – | – | 50 nM and 0.04 µg/mL
c1ccc2[nH]c(-c3ccc(OCCCCCCOc4ccc(-c5nc6ccccc6[nH]5)cc4)cc3)nc2c1 [Compound 4, 2,2′-[1,6-hexanediylbis(oxy-1,4-phenylene)]bis-1H-benzimidazole] | > 300 °C | – | – | – | –
c1ccc2[nH]c(-c3ccc(OCCCCCCCOc4ccc(-c5nc6ccccc6[nH]5)cc4)cc3)nc2c1 [Compound 5, 2,2′-[1,7-heptanediylbis(oxy-1,4-phenylene)]bis-1H-benzimidazole] | 298 to 301 °C | – | – | – | –
c1ccc2[nH]c(-c3ccc(OCCCCOc4ccc(-c5nc6ccccc6[nH]5)cc4)cc3)nc2c1 [Compound 2, 2,2′-[1,4-butanediylbis(oxy-1,4-phenylene)]bis-1H-benzimidazole] | > 300 °C | – | – | – | –
c1ccc2[nH]c(-c3ccc(OCCCOc4ccc(-c5nc6ccccc6[nH]5)cc4)cc3)nc2c1 [Compound 1, 2,2′-[1,3-propanediylbis(oxy-1,4-phenylene)]bis-1H-benzimidazole] | > 300 °C | 16.6 µg/mL | – | 1 | –
c1cc(OCCCCCOc2cccc(-c3nc4ccccc4[nH]3)c2)cc(-c2nc3ccccc3[nH]2)c1 [Compound 6, 2,2′-[1,5-pentanediylbis(oxy-1,3-phenylene)]bis-1H-benzimidazole] | 240 to 243 °C | 3.91 µg/mL | – | 2 | –
C[C@H]1[C@H](OC(=O)CCC(=O)O)O[C@@H]2O[C@@]3(C)CC[C@H]4[C@H](C)CC[C@@H]1[C@@]24OO3 [Artesunate, reference compound] | – | – | – | – | 5 nM

Second part, led by results:

melting point | IC50 (Plasmodium falciparum; [2]) | SMILES | activity against some other strains of parasites (selectivity compared to chloroquine) [1] | score (Plasmodium falciparum; Table 2) | IC50 (Plasmodium falciparum; 72 h)
> 300 °C | 0.49 µg/mL | c1ccc2[nH]c(-c3ccc(OCCCCCOc4ccc(-c5nc6ccccc6[nH]5)cc4)cc3)nc2c1 [Compound 3, 2,2′-[1,5-pentanediylbis(oxy-1,4-phenylene)]bis-1H-benzimidazole] | not active | 3 | –
190 to 193 °C | 8.31 µg/mL | c1ccc(-c2nc3ccccc3[nH]2)c(OCCCCCOc2ccccc2-c2nc3ccccc3[nH]2)c1 [Compound 7, 2,2′-[1,5-pentanediylbis(oxy-1,2-phenylene)]bis-1H-benzimidazole] | – | 2 | –
